Laboratory results published in patent publication US10689622B2, “Culture medium for proliferating stem cell, which contains sulfated compound” (AJINOMOTO CO., INC., priority 2012, dated 2020).

What was measured:
[1] = tested on: Human bone marrow-derived mesenchymal stem cells; assay: Mesenchymal stem cell proliferation system (cell number by DNA quantification); settings: for number of cells relative to control: mesenchymal stem cells
Experimental: Human bone marrow-derived mesenchymal stem cells (Lonza, Human Mesenchymal Stem Cell) cultured in mesenchymal stem cell-dedicated medium (Lonza, MSCGM) or Dulbecco's Modified Eagle Medium (Invitrogen, GIBCO D-MEM) containing inactivated fetal bovine serum (Invitrogen, GIBCO FBS) and penicillin-streptomycin (Sigma-Aldrich Co. LLC.) were cultured in exchanged Lonza serum-free medium. The mesenchymal stem cells thus-acclimated to serum-free culture were suspended in Lonza serum-free medium, and seeded on a 24 well culture plate (Nippon Becton Dickinson Company, Ltd., Falcon culture plate) at 20,000 cells/well or a 6 well culture plate (Nippon Becton Dickinson Company, Ltd., Falcon culture plate) at 50,000 cells/well. Then, a test compound solution after filter sterilization and adjustment to a given concentration was added, and the cells were cultured in an incubator (Thermo Scientific, Forma incubator) under the 5% CO2/37° C. conditions for 7 to 8 days. When the medium exchange was necessary, the medium was exchanged 2 to 3 days after the seeding. In this case, the test compound solution was also added again in the same manner as in seeding. In this case, various compound solutions were added again in the same manner as in seeding. After culturing for 7 to 8 days, the medium was removed and DNA quantification was performed. As a control, the cells were cultured in the same manner in a medium without a test compound and added with phosphate buffered saline.
The medium in the 24 well culture plate was removed, and the cells were washed with phosphate buffered saline. The sodium lauryl sulfate solution (500 μl/well) was added, and the mixture was left standing at 37° C. for 4 hours. The sodium lauryl sulfate solution (1.0 ml) was also added to a cell pellet with a known cell number, and the mixture was left standing at 37° C. for 4 hours. As for the cells in the 24 well culture plate, a part (50 μl) of the lysate was transferred to a 96 well black microplate. The solution used for treating the cell pellets was successively diluted with sodium lauryl sulfate solution and used as solutions for drawing an analytical curve. Also, a part (50 μl) of the solutions for drawing an analytical curve was each transferred to the 96 well black microplate. […] The fluorescence was measured by a microplate reader (excitation wavelength: 355 nm, measurement wavelength: 460 nm) within 5 minutes from the addition. The cell number of the 24 well cell culture plate was calculated from the analytical curve drawn (conversion formula). The evaluation criteria were as follows.

[2] = molecular target: T1, bFGF (Homo sapiens, UniProt P09038); assay: Evaluation of bFGF stabilization in Essential 8 medium (ELISA); format: biochemical; settings: 37° C. for 7 days
T1 construct: purchased Lonza (via TAKARA BIO INC.) Ser. No. 00/190,632
Experimental: (§1) A commercially available measurement kit (human bFGF ELISA kit, ELH-bFGF-001, Ray Biotech) was used for quantification of bFGF in the medium. The measurement procedures followed the protocol attached to the kit. The bFGF concentration of the serum-free medium was calculated from the analytical curve (conversion formula) drawn from the absorbance of an analytical curve standard solution. The evaluation criteria of Tables 5-8 are as follows:
(§2) A test compound was dissolved in phosphate buffered saline, and diluted 10-fold with a serum-free medium to adjust the concentration shown in Table 4 (test sample). The test sample was left standing in a tightly sealed Falcon tube at 37° C. for 7 days, and the bFGF concentration was quantified by ELISA measurement. A phosphate buffered saline without a test compound was diluted 10-fold with Essential 8 medium or ReproFF2 medium, and left standing at 37° C. or 4° C. for 7 days, and used as a control.
as §1, with “Table 13” for “Tables 5-8”
as §2, with “Table 12” for “Table 4”

[3] = molecular target: T1, bFGF; assay: Evaluation of bFGF stabilization in Lonza serum-free medium (ELISA); format: biochemical; settings: for concentration at which a decrease in the protein amount of FGF is not suppressed: as shown in the Examples (methods of Examples I-1 and II-1)
Experimental: A test compound was dissolved in phosphate buffered saline, and diluted 10-fold with a serum-free medium to adjust to the concentrations shown in Table 4 (test sample). The test sample was left standing in a tightly sealed Falcon tube at 37° C. for 7 days (Tables 5 to 8-2) or 3 days (Table 8-3), and the bFGF concentration was quantified by ELISA measurement. A phosphate buffered saline without a test compound was diluted 10-fold with a serum-free medium, and left standing at 37° C. or 4° C. for 7 days or 3 days, and used as a control.
as §1
as §2, with “adjust to” for “adjust”, “the concentrations” for “the concentration”, “Table 13” for “Table 4”, “with a serum-free” for “with Essential 8 medium or ReproFF2”
as §1, with “Table 13” for “Tables 5-8”, “follows: […]” for “follows:”

[4] = Measurement of content level of sulfur in test compound (ICP); format: physicochemical; settings: for sulfur content Found (inorganic analysis): ICPS-8100, evaluation samples containing 0.01 wt % test compound
Excerpt: (§3) The content level of sulfur in the sulfated saccharide is generally not less than 5 wt %, preferably not less than 10 wt %, more preferably not less than 15 wt %, and the upper limit is generally not more than 40 wt %, preferably not more than 35 wt %, more preferably not more than 30 wt %. […] Here, the content level of sulfur is a proportion in wt % of sulfur derived only from the sulfate group in sulfated saccharides, which can be measured by a method known in the field (e.g., rhodizonate method, elemental analysis or luminescent spectral analysis).
as §3, with “polymer” for “saccharide”, “wt” for “wt %, preferably not more than 35 wt %, more preferably not more than 30 wt”, “in” for “derived only from”, “the” for “the sulfate group in”, “polymer,” for “saccharides,”, “such as” for “(e.g.,”
The relationship between the content level of sulfur in a test compound (sulfur content) and the cell proliferation promoting effect was examined. The sulfur content was measured using ICPS-8100 manufactured by SHIMADZU CORPORATION and analyzed using ICPS-8000 series Ver1.03. As the reference standard of sulfur, the standard for ICP-MS manufactured by Accu Standard was used. Sulfur reference standard solutions (0, 1, 10, 30, 50 ppm) were prepared, and the sulfur content of the evaluation samples containing 0.01 wt % test compound was measured by an analytical curve method.

[5] = growth of mesenchymal stem cell, control ratio
[6] = Lonza serum-free medium, 37° C. for 7 days, test compound 25 ng/ml
[7] = Lonza serum-free medium, 37° C. for 7 days, test compound 250 ng/ml
[8] = Lonza serum-free medium, 37° C. for 7 days, test compound 25 μg/ml
[9] = Lonza serum-free medium, 37° C. for 7 days, test compound 250 μg/ml
[10] = effectiveness in ELISA evaluation of mesenchymal stem cells (medium), 4° C. control ratio

T1 sequence (P09038 143-288): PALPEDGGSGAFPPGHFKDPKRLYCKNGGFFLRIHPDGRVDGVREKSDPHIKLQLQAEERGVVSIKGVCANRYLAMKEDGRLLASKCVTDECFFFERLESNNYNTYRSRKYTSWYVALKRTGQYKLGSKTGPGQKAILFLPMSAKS

Substance	effectiveness cells [1, 5]	concentration showing a suppressive effect on a decrease in the bFGF concentration of the medium [2]	bFGF concentration relative to that of 4° C. control (ELISA) ([2]; test compound 250 pg/ml)	bFGF concentration relative to that of 4° C. control (ELISA) ([2]; test compound 25 ng/ml)	bFGF concentration relative to that of 4° C. control (ELISA) ([2]; test compound 250 ng/ml)	bFGF concentration relative to that of 4° C. control (ELISA) ([2]; test compound 25 μg/ml)	bFGF concentration relative to that of 4° C. control (ELISA) ([2]; test compound 250 μg/ml)	bFGF concentration relative to that of 4° C. control (ELISA) [3, 6]	bFGF concentration relative to that of 4° C. control (ELISA) [3, 7]	bFGF concentration relative to that of 4° C. control (ELISA) [3, 8]	bFGF concentration relative to that of 4° C. control (ELISA) [3, 9]	concentration at which a decrease in the protein amount of FGF is not suppressed [3]	effectiveness ELISA [3, 10]	sulfur content Found (inorganic analysis) [4]	other results
gluconolactone-SO3Na	◯ (◯ not leas than 100%)	not less than 25 μg/ml	x (bFGF concentration was less than 10% relative to that of 4 °C control)	x (bFGF concentration was less than 10% relative to that of 4 °C control)	x (bFGF concentration was less than 10% relative to that of 4 °C control)	++ (bFGF concentration was not less than 50% and less than 70% relative to that of 4 °C control)	+++ (bFGF concentration was not less than 70% relative to that of 4 °C control)	x (bFGF concentration was less than 10% relative to that of 4 °C control)	x (bFGF concentration was less than 10% relative to that of 4 °C control)	++ (bFGF concentration was not less than 50% and less than 70% relative to that of 4 °C control)	x (bFGF concentration was less than 10% relative to that of 4 °C control)	not more than 2.5 μg/ml	++ (++ 50%<)	14 wt %	–
L-triserine SO3Na	–	–	–	–	–	–	–	x (bFGF concentration was less than 10% relative to that of 4 °C control)	x (bFGF concentration was less than 10% relative to that of 4 °C control)	− (bFGF concentration was not less than 10% and less than 30% relative to that of 4 °C control)	++ (bFGF concentration was not less than 50% and less than 70% relative to that of 4 °C control)	not more than 2.5 μg/ml	–	–	effectiveness cells ([1]; summary grade of cell proliferation): ⊚ (not less than 120); number of cells relative to control ([1]; test compound 25 pg/ml): — (100-50); number of cells relative to control ([1]; test compound 250 pg/ml): ◯ (not less than 100); number of cells relative to control ([1]; test compound 25 ng/ml): — (100-50); number of cells relative to control ([1]; test compound 250 ng/ml): — (100-50); bFGF concentration, 4° C. ctrl ratio ([2]; test compound 250 pg/ml): x (bFGF concentration was less than 10% relative to that of 4 °C control); bFGF concentration, 4° C. ctrl ratio ([2]; test compound 25 ng/ml): x (bFGF concentration was less than 10% relative to that of 4 °C control); bFGF concentration, 4° C. ctrl ratio ([2]; test compound 250 ng/ml): x (bFGF concentration was less than 10% relative to that of 4 °C control); bFGF concentration, 4° C. ctrl ratio ([2]; test compound 25 μg/ml): ++ (bFGF concentration was not less than 50% and less than 70% relative to that of 4 °C control); bFGF concentration, 4° C. ctrl ratio ([2]; test compound 250 μg/ml): +++ (bFGF concentration was not less than 70% relative to that of 4 °C control); concentration showing a suppressive effect on a decrease in the bFGF concentration of the medium ([3]; Lonza serum-free medium, 37° C. for 7 days): not less than 25 μg/ml; bFGF concentration relative to that of 4° C. control (ELISA) ([3]; Lonza serum-free medium, 37° C. for 7 days, test compound 250 pg/ml): x (bFGF concentration was less than 10% relative to that of 4 °C control); effectiveness ELISA ([3]; summary grade of bFGF stabilization): ++ (bFGF concentration was not less than 50% and less than 70% relative to that of 4 °C control); sulfer content Found (inorganic analysis) [4]: 18
maltitol SO3Na	⊚ (⊚ not less than 120%)	not less than 2.5 μg/ml	x (bFGF concentration was less than 10% relative to that of 4 °C control)	x (bFGF concentration was less than 10% relative to that of 4 °C control)	x (bFGF concentration was less than 10% relative to that of 4 °C control)	+ (bFGF concentration was not less than 30% and less than 50% relative to that of 4 °C control)	+ (bFGF concentration was not less than 30% and less than 50% relative to that of 4 °C control)	x (bFGF concentration was less than 10% relative to that of 4 °C control)	++ (bFGF concentration was not less than 50% and less than 70% relative to that of 4 °C control)	+++ (bFGF concentration was not less than 70% relative to that of 4 °C control)	++ (bFGF concentration was not less than 50% and less than 70% relative to that of 4 °C control)	–	+++ (+++ 70%<)	17 wt %	–
mannitol SO3Na	◯ (◯ not leas than 100%)	not less than 2.5 μg/ml	x (bFGF concentration was less than 10% relative to that of 4 °C control)	x (bFGF concentration was less than 10% relative to that of 4 °C control)	x (bFGF concentration was less than 10% relative to that of 4 °C control)	+++ (bFGF concentration was not less than 70% relative to that of 4 °C control)	+++ (bFGF concentration was not less than 70% relative to that of 4 °C control)	+ (bFGF concentration was not less than 30% and less than 50% relative to that of 4 °C control)	− (bFGF concentration was not less than 10% and less than 30% relative to that of 4 °C control)	+ (bFGF concentration was not less than 30% and less than 50% relative to that of 4 °C control)	++ (bFGF concentration was not less than 50% and less than 70% relative to that of 4 °C control)	–	++ (++ 50%<)	17 wt %	–
